Reference: PMC10897476, “Pyridylpiperazine efflux pump inhibitor boosts in vivo antibiotic efficacy against K. pneumoniae” (EMBO Molecular Medicine, 2023)
Several values for one entry are separate records, joined by “and”; a condition that tells them apart may be missing. Equal entries are not always repeated. Where two headings read alike, the source gives them in different places. Marks after values point to notes of the source that are not given here.

What was measured:
[1] = test system: K. pneumoniae AcrB^V448E RamR^mut; assay: MIC of antibiotics with and without EPI (REMA), double mutant; format: cell-based, Klebsiella pneumoniae; conditions: K. pneumoniae AcrB^V448E RamR^mut
Procedure: MIC experiments were carried out according to the CLSI guidelines (CLSI [2023]). Overnight cultures were diluted to an OD600 = 0.001 in CAMHB followed by addition of efflux pump inhibitors (EPIs) at a final concentration of 100 µM. […] Plates were incubated at 37 °C for up to 20 h. Bacterial viability was evaluated using the resazurin microtitre assay (REMA) and measured by fluorescence using a Tecan Spaert multimode plate reader (Ex: 530 nm Em: 590 nm). MICs were defined as the concentration that prevented 90% of resazurin turnover compared to the non-treated bacteria.

[2] = Plasma protein binding by equilibrium dialysis; format: in vitro ADME; conditions: pH 7.4, mouse plasma, read-out: plasma protein binding, Funbound
Procedure: In vitro plasma protein binding of BDM91288 (5) was measured in mouse plasma using equilibrium dialysis. The RED inserts were placed in a 48-well Teflon Plate (Pierce). Samples were prepared by mixing test compound with plasma at the appropriate concentration to reach a final drug concentration of 10 μM. Triplicate aliquots of plasma containing BDM91288 (5) at a concentration of 10 μM were pipetted to plasma side (red) of the insert and PBS pH 7.4 was placed into the receiver side (white) of the insert. The plate was covered with sealing tape and incubated in a 37 °C orbital shaker water bath for 4 h. Following incubation, samples were prepared in a mixed matrix configuration. Aliquots of samples were pipetted into 96-well plates and precipitation buffer was added to precipitate the proteins. Samples were mixed by vortexing, then centrifuged for 10 min at 12,000 rpm at 4 °C. The supernatant was assayed directly by LC-MS/MS. The following equation was used to calculate the percentage of bound drug fraction (% PPB) using this equilibrium dialysis method: % unbound = ([Buffer chamber]/[Plasma chamber) × 100.

[3] = test system: K. pneumoniae AcrB variant V448E; assay: Berberine accumulation assay, K. pneumoniae AcrB V448E; format: cell-based, Klebsiella pneumoniae; conditions: K. pneumoniae producing AcrB variant V448E
Procedure: The accumulation of the berberine AcrB substrate in K. pneumoniae WT and AcrB-V448E cells in the presence of different BDM91288 (5) concentrations was determined as described (Plé et al, [2022]) with minor modifications. Briefly, an overnight LB pre-culture of each strain (0.6 mL) was used to inoculate a 30-mL LB culture and incubated for around 2 h (37 °C, 150 rpm) to reach OD600 around 1. Cells were harvested by centrifugation (4000 × g, 10 min at 4 °C), washed three times with 10 mL of ice-cold buffer (50 mM potassium-phosphate pH 7.5 and 1 mM MgSO4) and resuspended into the same buffer containing also 0.2% glucose to an OD600 of 2. The bacterial suspension was then allowed to reach room temperature, after which 200 µL was dispensed to wells of an assay ready 96-black-well plate (Greiner Bio-One) containing 2 µL of 100× concentrated serial dilution of BDM91288 (5). To initiate the uptake experiment, 2 µL of berberine 20 mM (final concentration of 200 µM) was added to each well and transferred to a microplate fluorescence plate reader (Spark, Tecan), where the kinetics of berberine uptake was monitored for 20 min at 30 °C (excitation 365 nm/emission 540 nm). Experiments were performed 4 independent times, and berberine uptake was calculated for all conditions as the rate of fluorescence increase over the first 10 min and expressed as RFU/min (mean ± SD). […]

[4] = Toxicity in mice after a single oral administration; format: in vivo; conditions: over a 24-h period after a single oral administration at 30 mg/kg
Procedure: For these reasons, this compound was selected for multi-organ pharmacokinetic (PK) studies to measure its temporal distribution and tissue concentration in female mice (CD-1), following a single oral administration of 30 mg/kg (Fig. EV3A; Appendix Table S3).

[5] = Pharmacokinetics in mice, single oral dose (plasma, whole lung); conditions: for concentration at 0.5 h / concentration at 1 h / concentration at 1.5 h / concentration at 2 h / concentration at 4 h / concentration at 6 h / concentration at 24 h: mice
Procedure: BDM91288 (5) was dissolved in 10% kleptose hydroxypropyl-β-cyclodextrin in distilled water and administered per os at 30 mg/kg to female CD-1 mice (~25–30 g). The concentration of BDM91288 (5) in plasma and lungs was measured at different time points after administration of a single dose of compounds. Three mice per time point were anesthetized with isoflurane and blood taken from the retro-orbital sinus using sampling heparinated tubes (4 °C). The blood samples were centrifuged (3500 rpm, 20 min, 4 °C) for plasma separation and stored at −80 °C before BDM91288 measurement. After rodent sacrifice by cervical dislocation, lung was washed in sodium chloride solution (0.9%), frozen in liquid nitrogen and stored at −80 °C.
Plasma and BAL fluid samples were thawed on ice. Aliquots were precipitated with ice-cold MeCN/MeOH 50:50 (1 to 10 ratio) containing propranolol (100 nM) as internal standard. The samples were vigorously mixed with a vortex and centrifuged for 10 min at 12,000 rpm, 4 °C, and the supernatants were transferred into Matrix tubes for LC-MS/MS analysis. Lungs were homogenized in ultrapure water, in a 1 to 4 ratio (W/V) (using a Tissue Lyzer II from Qiagen); then compounds were extracted with a MeOH/MeCN 50:50 mixture in a 1 to 1 ratio (V/V). After centrifugation (12,000 rpm, 10 min, 4 °C) of the homogenate samples, supernatants were diluted (1 to 10) with a MeOH/MeCN 50:50 mixture containing propranolol (100 nM) as internal standard and transferred into Matrix tubes for LC-MS/MS analysis. Spiked standard solutions were prepared the same way in control matrix.
Samples were analysed using a UPLC system Acquity I Class (Waters), combined with a triple quadrupole mass spectrometer Xevo TQD (Waters). The column, placed at 40 °C, was an Acquity BEH C18 50 × 2.1 mm, 1.7 μm column (Waters) and the following mobile phases were used: H2O 0.1% HCOOH as solvent A and MeCN 0.1% HCOOH as solvent B at a flow rate of 0.6 mL/min. The gradient was initiated at 2% B, maintained for 10 s then increased linearly to 98% B in 1′50 and maintained at 98% B for 30 s before returning to initial conditions. […] Data analysis and processing were performed using MassLynx software (Waters).

[6] = female, CD-1, mouse, in vivo, po, 30 mg/kg
[7] = female, CD-1, mouse, in vivo, po, 30 mg/kg, Caverage plasma, single 30 mg/kg p.o.
[8] = female, CD-1, mouse, in vivo, po, 30 mg/kg, Caverage whole lung, single 30 mg/kg p.o.

C[C@H]1COc2c(N3CCN(C)CC3)c(F)cc3c(=O)c(C(=O)O)cn1c23 [Levofloxacin]
Minimum Inhibitory Concentration ([1]; + 100 µM 1'): 1.28 mg/L | Minimum Inhibitory Concentration ([1]; + 100 µM 5): 1.28 mg/L | Minimum Inhibitory Concentration ([1]; + 100 µM PAβN): 0.05^# mg/L | Minimum Inhibitory Concentration ([1]; No EPI): 1.28 mg/L

Clc1cc2cc(N3CCNCC3)ccc2nc1N1CCNCC1 [compound 5]
fraction unbound at 4 h, 10 μM [2]: 0.54 | concentration-dependent stimulation of berberine uptake [3]: not observed | toxicity in mice [4]: no toxicity was observed | Tmax [5, 6]: 4 h | half-life [5, 6]: > 600 min | AUC(0-t) ([5]; female, CD-1, mouse, in vivo, po, 30 mg/kg, AUC(0-24h) plasma, single 30 mg/kg p.o., female CD-1 mice): 27 µM·h | AUC(0-t) ([5]; female, CD-1, mouse, in vivo, po, 30 mg/kg, AUC(0-24h) whole lung, single 30 mg/kg p.o., female CD-1 mice): 3880 µM·h | concentration at 0.5 h [5, 7]: 800 nM | concentration at 1 h [5, 7]: 1600 nM | concentration at 1.5 h [5, 7]: 1300 nM | concentration at 2 h [5, 7]: 1800 nM | concentration at 4 h [5, 7]: 2000 nM | concentration at 6 h [5, 7]: 1400 nM | concentration at 24 h [5, 7]: 500 nM | concentration at 0.5 h [5, 8]: 35.4 µM and 11700 ng/g | concentration at 1 h [5, 8]: 93.5 µM and 31000 ng/g | concentration at 1.5 h [5, 8]: 102 µM and 33800 ng/g | concentration at 2 h [5, 8]: 160 µM and 53100 ng/g | concentration at 4 h [5, 8]: 225 µM and 74700 ng/g | concentration at 6 h [5, 8]: 168 µM and 55900 ng/g | concentration at 24 h [5, 8]: 159 µM and 52800 ng/g | Cmax ([5]; female, CD-1, mouse, in vivo, po, 30 mg/kg, Cmax plasma, single 30 mg/kg p.o., female CD-1 mice): 2 µM | Cmax ([5]; female, CD-1, mouse, in vivo, po, 30 mg/kg, Cmax whole lung, single 30 mg/kg p.o., female CD-1 mice): 225 µM and 75000 ng/g | Cmax ([5]; read-out: Cmax whole lung, single 30 mg/kg p.o., female CD-1 mice, listed as BDM91288 (5)): 225 µM
